One assay concerns MV4;11 cells. Put plainly: Cell viability assay (CellTiter-Glo) in MV4;11 cells, alone or with gilteritinib. The class given is cell-based. Conditions: Homo sapiens, MV4-11, 72 h, MV4;11 cells, three days, CellTiter-Glo, read-out: MV4. On the technique in general: In ATP-based viability assays light output follows the ATP content of the culture.
In the next assay the test system is MOLM-13 cells. Put plainly: Cell viability assay (CellTiter-Glo) in MOLM-13 cells, alone or with gilteritinib. The settings on record: Homo sapiens, MOLM-13, 72 h, MOLM-13 cells, three days, CellTiter-Glo. Format: cell-based.
Setting [1] is: compound alone (without gilteritinib), 11 IC50.
The mark [2] stands for this setting: with gilteritinib 10 nM, 11 IC50 gilteritinib.
[3] abbreviates: compound alone (without gilteritinib), read-out: MOLM-13 IC50.
[4] abbreviates: with gilteritinib 20 nM, read-out: MOLM-13 IC50 gilteritinib.

Drawing on patent US20240050428A1 (Cullgen (Shanghai), Inc., priority 2020, published 2024), this text covers IC50 for 19 molecules.

Each structure is given as a SMILES string. Like-named read-outs stand apart in the source and are kept apart here.

On to `O=C1CCC(N2C(=O)c3ccc(NC[C@H]4C[C@H](n5cc(-c6cnc7ccc(CN8CCOCC8)cc7n6)c(C6CC6)n5)C4)cc3C2=O)C(=O)N1` (stereo partly drawn) [GS-067, 5-(((trans-3-(3-Cyclopropyl-4-(7-(morpholinomethyl)quinoxalin-2-yl)-1H-pyrazol-1-yl)cyclobutyl)methyl)amino)-2-(2,6-dioxopiperidin-3-yl)isoindoline-1,3-dione], for which the IC50 with MV4;11 cells (setting [1]) is 10 to 100 nM; in the assay on MV4;11 cells (setting [2]), 10 to 100 nM; in the assay on MOLM-13 cells (setting [3]) it was more than 1000 nM; in the assay on MOLM-13 cells (setting [4]), 10 to 100 nM.

With `O=C1CCC(N2C(=O)c3ccc(NC[C@H]4C[C@H](n5cc(-c6cnc7ccc(CN8CCNCC8)cc7n6)c(C6CC6)n5)C4)cc3C2=O)C(=O)N1` (stereo partly drawn) [GS-068, 5-(((trans-3-(3-cyclopropyl-4-(7-(piperazin-1-ylmethyl)quinoxalin-2-yl)-1H-pyrazol-1-yl)cyclobutyl)methyl)amino)-2-(2,6-dioxopiperidin-3-yl)isoindoline-1,3-dione], the IC50 in the assay with MV4;11 cells (setting [1]) is 10 to 100 nM; in the assay on MV4;11 cells (setting [2]), less than 10 nM; with MOLM-13 cells (setting [3]) it was more than 1000 nM; in the assay on MOLM-13 cells (setting [4]), 10 to 100 nM.

Take `CCc1cccc(-c2cn([C@H]3C[C@H](CNc4ccc5c(c4)C(=O)N(C4CCC(=O)NC4=O)C5=O)C3)nc2C2CC2)n1` (stereo partly drawn) [GS-069, 5-(((trans-3-(3-Cyclopropyl-4-(6-ethylpyridin-2-yl)-1H-pyrazol-1-yl)cyclobutyl)methyl)amino)-2-(2,6-dioxopiperidin-3-yl)isoindoline-1,3-dione]: the IC50 with MV4;11 cells (setting [1]) is 10 to 100 nM; in the assay with MV4;11 cells (setting [2]), less than 10 nM; with MOLM-13 cells (setting [3]), 100 to 1000 nM; with MOLM-13 cells (setting [4]), 10 to 100 nM.

On to `O=C1CCC(N2C(=O)c3ccc(NCCC[C@H]4C[C@H](n5cc(-c6ncccc6Cl)c(C6CC6)n5)C4)cc3C2=O)C(=O)N1` (stereo partly drawn) [GS-070, 5-((3-(trans-3-(4-(3-chloropyridin-2-yl)-3-cyclopropyl-1H-pyrazol-1-yl)cyclobutyl)propyl)amino)-2-(2,6-dioxopiperidin-3-yl)isoindoline-1,3-dione], for which the IC50 with MV4;11 cells (setting [1]) was 10 to 100 nM; in the assay with MV4;11 cells (setting [2]), less than 10 nM; in the assay on MOLM-13 cells (setting [3]) it was 100 to 1000 nM; in the assay on MOLM-13 cells (setting [4]), less than 10 nM.

Consider `Cc1cccc(-c2cn([C@H]3C[C@H](CNc4ccc5c(c4)C(=O)N(C4CCC(=O)NC4=O)C5=O)C3)nc2C2CCOCC2)n1` (stereo partly drawn) [GS-071, 2-(2,6-Dioxopiperidin-3-yl)-5-(((trans-3-(4-(6-methylpyridin-2-yl)-3-(tetrahydro-2H-pyran-4-yl)-1H-pyrazol-1-yl)cyclobutyl)methyl)amino)isoindoline-1,3-dione], for which the IC50 is more than 1000 nM in the assay with MV4;11 cells (setting [1]), 10 to 100 nM in the assay with MV4;11 cells (setting [2]), more than 1000 nM with MOLM-13 cells (setting [3]) and 10 to 100 nM with MOLM-13 cells (setting [4]).

As to `O=C1CCC(N2Cc3cc(Nc4ccnc(Nc5ccc6c(c5)CC(N5CCC(n7cc(-c8cnc9cccc(Br)c9n8)cn7)CC5)C6)n4)ccc3C2=O)C(=O)N1` (stereo not shown) [GS-072, 3-(5-((2-((2-(4-(4-(8-Bromoquinoxalin-2-yl)-1H-pyrazol-1-yl)piperidin-1-yl)-2,3-dihydro-1H-inden-5-yl)amino)pyrimidin-4-yl)amino)-1-oxoisoindolin-2-yl)piperidine-2,6-dione], the IC50 was more than 1000 nM in the assay on MV4;11 cells (setting [1]), 100 to 1000 nM in the assay on MV4;11 cells (setting [2]), more than 1000 nM with MOLM-13 cells (setting [3]) and 100 to 1000 nM in the assay with MOLM-13 cells (setting [4]).

Regarding `O=C1CCC(N2Cc3cc(Nc4ccnc(Nc5ccc6c(c5)CC(N5CCC(n7cc(-c8cnc9ccccc9n8)cn7)CC5)C6)n4)ccc3C2=O)C(=O)N1` (stereo not shown) [GS-073, 3-(1-Oxo-5-((2-((2-(4-(4-(quinoxalin-2-yl)-1H-pyrazol-1-yl)piperidin-1-yl)-2,3-dihydro-1H-inden-5-yl)amino)pyrimidin-4-yl)amino)isoindolin-2-yl)piperidine-2,6-dione], the IC50 in the assay with MV4;11 cells (setting [1]) fell in the range of 100 to 1000 nM; in the assay on MV4;11 cells (setting [2]), 10 to 100 nM; in the assay on MOLM-13 cells (setting [3]), 100 to 1000 nM; with MOLM-13 cells (setting [4]), 100 to 1000 nM.

As for `O=C1CCC(N2Cc3c(Nc4ccnc(N5CCC(N6CCC(n7cc(-c8cnc9ccccc9n8)cn7)CC6)C5)n4)cccc3C2=O)C(=O)N1` (stereo not shown) [GS-074, 3-(1-Oxo-4-((2-(3-(4-(4-(quinoxalin-2-yl)-1H-pyrazol-1-yl)piperidin-1-yl)pyrrolidin-1-yl)pyrimidin-4-yl)amino)isoindolin-2-yl)piperidine-2,6-dione], the IC50 with MV4;11 cells (setting [1]), in the assay on MV4;11 cells (setting [2]), with MOLM-13 cells (setting [3]) and in the assay with MOLM-13 cells (setting [4]) was more than 1000 nM in each case.

On to `O=C1CCC(N2Cc3c(Nc4ccnc(Nc5cccc(N6CCC(c7ccccc7)CC6)c5)n4)cccc3C2=O)C(=O)N1` (stereo not shown) [GS-075], for which the IC50 with MV4;11 cells (setting [1]) is 100 to 1000 nM; in the assay with MV4;11 cells (setting [2]), 10 to 100 nM; in the assay with MOLM-13 cells (setting [3]), 100 to 1000 nM; with MOLM-13 cells (setting [4]), 10 to 100 nM.

As for `O=C1CCC(N2Cc3c(Nc4ccnc(Nc5cccc(N6CCN(c7ccccn7)CC6)c5)n4)cccc3C2=O)C(=O)N1` (stereo not shown) [GS-076, 3-(1-Oxo-4-((2-((3-(4-(pyridin-2-yl)piperazin-1-yl)phenyl)amino)pyrimidin-4-yl)amino)isoindolin-2-yl)piperidine-2,6-dione], the IC50 was 10 to 100 nM with MV4;11 cells (setting [1]), less than 10 nM in the assay with MV4;11 cells (setting [2]), 10 to 100 nM with MOLM-13 cells (setting [3]) and less than 10 nM in the assay with MOLM-13 cells (setting [4]).

Turning to `O=C1CCC(N2Cc3c(Nc4ccnc(Nc5cccc(N6CCC(c7ccccn7)CC6)c5)n4)cccc3C2=O)C(=O)N1` (stereo not shown) [GS-077, 3-(1-Oxo-4-((2-((3-(4-(pyridin-2-yl)piperidin-1-yl)phenyl)amino)pyrimidin-4-yl)amino)isoindolin-2-yl)piperidine-2,6-dione], the IC50 is less than 10 nM with MV4;11 cells (setting [1]), less than 10 nM in the assay on MV4;11 cells (setting [2]), 10 to 100 nM in the assay on MOLM-13 cells (setting [3]) and less than 10 nM in the assay with MOLM-13 cells (setting [4]).

For the molecule `O=C1CCC(N2Cc3c(Nc4ccnc(Nc5cccc(N6CCN(c7ncccn7)CC6)c5)n4)cccc3C2=O)C(=O)N1` (stereo not shown) [GS-078, 3-(1-Oxo-4-((2-((3-(4-(pyrimidin-2-yl)piperazin-1-yl)phenyl)amino)pyrimidin-4-yl)amino)isoindolin-2-yl)piperidine-2,6-dione], the IC50 in the assay with MV4;11 cells (setting [1]) is 10 to 100 nM; in the assay with MV4;11 cells (setting [2]), less than 10 nM; in the assay with MOLM-13 cells (setting [3]), 10 to 100 nM; in the assay with MOLM-13 cells (setting [4]), less than 10 nM.

Take `O=C1CCC(N2Cc3c(Nc4ccnc(Nc5cccc(C(=O)N6CCC(n7cc(-c8cnc9ccccc9n8)cn7)CC6)c5)n4)cccc3C2=O)C(=O)N1` (stereo not shown) [GS-079, 3-(1-Oxo-4-((2-((3-(4-(4-(quinoxalin-2-yl)-1H-pyrazol-1-yl)piperidine-1-carbonyl)phenyl)amino)pyrimidin-4-yl)amino)isoindolin-2-yl)piperidine-2,6-dione]: the IC50 in the assay with MV4;11 cells (setting [1]) was 100 to 1000 nM; with MV4;11 cells (setting [2]), 10 to 100 nM; with MOLM-13 cells (setting [3]) it was more than 1000 nM; in the assay on MOLM-13 cells (setting [4]), 100 to 1000 nM.

On to `O=C1CCC(N2Cc3c(Nc4ccnc(Nc5cccc(C(=O)N6CCN(c7ccccn7)CC6)c5)n4)cccc3C2=O)C(=O)N1` (stereo not shown) [GS-080, 3-(1-Oxo-4-((2-((3-(4-(pyridin-2-yl)piperazine-1-carbonyl)phenyl)amino)pyrimidin-4-yl)amino)isoindolin-2-yl)piperidine-2,6-dione], for which the IC50 in the assay with MV4;11 cells (setting [1]) was more than 1000 nM; in the assay on MV4;11 cells (setting [2]), 100 to 1000 nM; in the assay on MOLM-13 cells (setting [3]) it was more than 1000 nM; with MOLM-13 cells (setting [4]), 100 to 1000 nM.

As to `O=C1CCC(N2Cc3c(Nc4ccnc(N5CCC(n6cc(-c7cnc8ccccc8n7)cn6)CC5)n4)cccc3C2=O)C(=O)N1` (stereo not shown) [GS-081, 3-(1-Oxo-4-((2-(4-(4-(quinoxalin-2-yl)-1H-pyrazol-1-yl)piperidin-1-yl)pyrimidin-4-yl)amino)isoindolin-2-yl)piperidine-2,6-dione], the IC50 in the assay with MV4;11 cells (setting [1]), with MV4;11 cells (setting [2]), in the assay on MOLM-13 cells (setting [3]) and in the assay with MOLM-13 cells (setting [4]) was more than 1000 nM throughout.

Consider `O=C(CC1CC(N2CCC(n3cc(-c4cnc5ccccc5n4)cn3)CC2)C1)NCc1ccc2c(c1)CN(C1CCC(=O)NC1=O)C2=O` (stereo not shown) [GS-082, N-((2-(2,6-Dioxopiperidin-3-yl)-1-oxoisoindolin-5-yl)methyl)-2-(3-(4-(4-(quinoxalin-2-yl)-1H-pyrazol-1-yl)piperidin-1-yl)cyclobutyl)acetamide], for which the IC50 is more than 1000 nM with MV4;11 cells (setting [1]), 100 to 1000 nM in the assay with MV4;11 cells (setting [2]), more than 1000 nM in the assay with MOLM-13 cells (setting [3]) and 100 to 1000 nM with MOLM-13 cells (setting [4]).

`O=C(CC1CC1N1CCC(n2cc(-c3cnc4ccccc4n3)cn2)CC1)NCc1ccc2c(c1)CN(C1CCC(=O)NC1=O)C2=O` (stereo not shown) [GS-083, N-((2-(2,6-Dioxopiperidin-3-yl)-1-oxoisoindolin-5-yl)methyl)-2-(2-(4-(4-(quinoxalin-2-yl)-1H-pyrazol-1-yl)piperidin-1-yl)cyclopropyl)acetamide]: the IC50 lay in the range of 10 to 100 nM in the assay with MV4;11 cells (setting [1]), 10 to 100 nM in the assay with MV4;11 cells (setting [2]), 100 to 1000 nM in the assay on MOLM-13 cells (setting [3]) and 10 to 100 nM with MOLM-13 cells (setting [4]).

For `O=C1CCC(N2Cc3c(Nc4ccnc(Nc5cccc(-n6cc(-c7cnc8ccccc8n7)cn6)c5)n4)cccc3C2=O)C(=O)N1` (stereo not shown) [GS-084, 3-(1-Oxo-4-((2-((3-(4-(quinoxalin-2-yl)-1H-pyrazol-1-yl)phenyl)amino)pyrimidin-4-yl)amino)isoindolin-2-yl)piperidine-2,6-dione], the IC50 with MV4;11 cells (setting [1]), with MV4;11 cells (setting [2]), in the assay with MOLM-13 cells (setting [3]) and in the assay on MOLM-13 cells (setting [4]) was more than 1000 nM each time.

Regarding `O=C1CCC(N2Cc3c(Nc4ccnc(NCCC(=O)N5CCC(n6cc(-c7cnc8ccccc8n7)cn6)CC5)n4)cccc3C2=O)C(=O)N1` (stereo not shown) [GS-085, 3-(1-Oxo-4-((2-((3-oxo-3-(4-(4-(quinoxalin-2-yl)-1H-pyrazol-1-yl)piperidin-1-yl)propyl)amino)pyrimidin-4-yl)amino)isoindolin-2-yl)piperidine-2,6-dione], the IC50 in the assay with MV4;11 cells (setting [1]), in the assay with MV4;11 cells (setting [2]), in the assay on MOLM-13 cells (setting [3]) and with MOLM-13 cells (setting [4]) was more than 1000 nM each time.
